Results from ChEMBL document CHEMBL6127084, “Exploration of the tunability of BRD4 degradation by DCAF16 trans-labelling covalent glues” (Eur J Med Chem, 2024).
Calls of active or inactive are those of the source. The rule behind the calls is not given here.

Legend:
[1] = biological target: T1, DDB1- and CUL4-associated factor 16/Bromodomain-containing protein 4 (Homo sapiens, UniProt O60885+Q9NXF7); assay: Molecular glue degradation (MGD) activity at DCAF16/BRD4 in human K562 cells assessed as maximum degradation incubated for 16 hrs by fluorescent stability reporter assay relative to control; format: cell-based
T1 sequence (Q9NXF7 whole entry, looked up, other chains not shown): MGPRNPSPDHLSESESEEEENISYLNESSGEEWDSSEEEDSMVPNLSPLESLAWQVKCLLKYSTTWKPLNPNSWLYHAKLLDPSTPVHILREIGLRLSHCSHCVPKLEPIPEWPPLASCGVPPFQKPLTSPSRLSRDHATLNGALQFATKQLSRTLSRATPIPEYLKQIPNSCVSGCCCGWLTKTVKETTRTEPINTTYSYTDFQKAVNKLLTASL

[2] = biological target: T1, DDB1- and CUL4-associated factor 16/Bromodomain-containing protein 4; assay: Molecular glue degradation (MGD) activity at DCAF16/BRD4 in human K562 cells incubated for 16 hrs; format: cell-based
K562 = assay: Induction of eGF-tagged BRD4 BD2 degradation in DCAF16 knock out human K562 cells at 1 uM incubated for 16 hrs by Western blot analysis; format: cell-based
[3] = Stability of compound in PBS assessed as half lives incubated for 1 hrs by LC-MS/MS analysis; format: physicochemical
Jurkat = assay: Molecular glue degradation (MGD) activity at BRD4 in DCAF16 knock out human Jurkat cells assessed as BRD4 degradation at 0.01 to 10 uM incubated for 6 hrs by Nano-Glo HiBiT assay; format: cell-based; conditions: dose 0.01-10 µM
[4] = Glutathione reactivity in PBS buffer assessed as half lives incubated for 1 hrs by LC-MS/MS analysis; format: physicochemical
[5] = biological target: T1, DDB1- and CUL4-associated factor 16/Bromodomain-containing protein 4; assay: Molecular glue degradation (MGD) activity at DCAF16/BRD4 in wild type human Jurkat cells assessed as BRD4 degradation at < 100 nM incubated for 6 hrs by Nano-Glo HiBiT assay; format: cell-based
[6] = biological target: T1, DDB1- and CUL4-associated factor 16/Bromodomain-containing protein 4; assay: Molecular glue degradation (MGD) activity at DCAF16/BRD4 BD2 in human K562 cells assessed as maximum degradation at 10 uM incubated for 16 hrs by fluorescent stability reporter assay relative to control; format: cell-based
[7] = biological target: T1, DDB1- and CUL4-associated factor 16/Bromodomain-containing protein 4; assay: Binding affinity to His-tagged BRD4 BD2 (unknown origin) assessed as ternary complex formation at 0.001 to 100 uM incubated for 1 to 24 hrs by TR-FRET assay; format: protein assay; conditions: dose 0.001-100 µM, time 1-24 hrs
[8] = biological target: T1, DDB1- and CUL4-associated factor 16/Bromodomain-containing protein 4; assay: Potency index, ratio of GNE011 MIC to test compound MIC for molecular glue degradation (MGD) activity at DCAF16/BRD4 BD2 in human K562 cells assessed as maximum degradation at 10 uM incubated for 16 hrs by fluorescent stability reporter assay; format: cell-based
[9] = biological target: T1, DDB1- and CUL4-associated factor 16/Bromodomain-containing protein 4; assay: Binding affinity to DCAF16/eGF-tagged BRD4 BD2 (unknown origin) assessed as ternary complex formation by measuring maximum TR-FRET ratio at 100 uM incubated for 1 hrs by TR-FRET assay; format: protein assay
[10] = biological target: T1, DDB1- and CUL4-associated factor 16/Bromodomain-containing protein 4; assay: Binding affinity to DCAF16/eGF-tagged BRD4 BD2 (unknown origin) assessed as ternary complex formation by measuring maximum TR-FRET ratio at 100 uM incubated for 24 hrs by TR-FRET assay; format: protein assay
[11] = biological target: T1, DDB1- and CUL4-associated factor 16/Bromodomain-containing protein 4; assay: Molecular glue degradation (MGD) activity at DCAF16/BRD4 in wild type human Jurkat cells assessed as BRD4 degradation at 10 nM incubated for 6 hrs by Nano-Glo HiBiT assay; format: cell-based
[12] = biological target: T1, DDB1- and CUL4-associated factor 16/Bromodomain-containing protein 4; assay: Molecular glue degradation (MGD) activity at DCAF16/ BRD4 BD2 in human K562 cells transfected with […] incubated for 16 hrs by fluorescent stability reporter assay; format: cell-based; conditions: dose 0.001-10 µM
[13] = biological target: T1, DDB1- and CUL4-associated factor 16/Bromodomain-containing protein 4; assay: Molecular glue degradation (MGD) activity at DCAF16/BRD4 in human K562 cells assessed as covalent-engagement of DCAF16 by measuring BRD4 degradation at 1 uM preincubated for 4 hrs followed by compound addition measured after 24 hrs (no washout experiment) by Western blot analysis; format: cell-based; conditions: time 28.0 hrs

SMILES: Cc1sc2c(c1C)C(c1ccc(C#CC(N)=O)cc1)=N[C@@H](CC(=O)OC(C)(C)C)c1nncn1-2
- Emax [1]: 69%
- DC50 [2]: 0.051 µM
- Activity (K562): inactive
- half-life [3]: > 12.5 h
- Activity (Jurkat): inactive
- half-life [4]: 6.33 h

SMILES: Cc1sc2c(c1C)C(c1ccc(/C=C/C=O)cc1)=N[C@@H](CC(=O)OC(C)(C)C)c1nncn1-2
- Emax [1]: 75%
- DC50 [2]: 0.064 µM
- Activity (K562): inactive
- half-life [3]: > 12.5 h
- Activity (Jurkat): inactive
- half-life [4]: 6.92 h
- Activity [5]: > 90%

SMILES: Cc1sc2c(c1C)C(c1ccc(NC(=O)CCl)cc1)=N[C@@H](CC(=O)OC(C)(C)C)c1nncn1-2
- DC50 [2]: 0.008 µM
- half-life [3]: > 12.5 h
- Activity (Jurkat): inactive
- Emax [6]: 56%
- half-life [4]: 8.85 h
- Activity [5]: > 90%

SMILES: Cc1sc2c(c1C)C(c1ccc(C#CCO)cc1)=N[C@@H](CC(=O)OC(C)(C)C)c1nncn1-2
- Emax [1]: 10%
- DC50 [2]: > 10 µM
- Activity [7]: inactive

SMILES: C=CS(=O)(=O)Nc1ccc(C2=N[C@@H](CC(=O)OC(C)(C)C)c3nncn3-c3sc(C)c(C)c32)cc1
- DC50 [2]: 0.001 µM
- Activity (K562): inactive
- half-life [3]: > 12.5 h
- Activity (Jurkat): inactive
- Emax [6]: 95%
- fold change (FC) [8]: 1000
- half-life [4]: > 12.5 h

SMILES: Cc1sc2c(c1C)C(c1ccc(C#CC=O)cc1)=N[C@@H](CC(=O)OC(C)(C)C)c1nncn1-2
- Ratio [9]: 2.12
- Ratio [10]: 0.28
- Emax [1]: 69%
- DC50 [2]: 0.703 µM
- Activity (K562): inactive
- half-life [3]: > 12.5 h
- Activity (Jurkat): inactive
- half-life [4]: 8.83 h
- Activity [11]: 73%
- Activity [5]: > 90%

SMILES: Cc1sc2c(c1C)C(c1ccc(/C=C/C(N)=O)cc1)=N[C@@H](CC(=O)OC(C)(C)C)c1nncn1-2
- Activity [12]: inactive
- half-life [3]: > 12.5 h
- Activity [13]: Active
- half-life [4]: > 12.5 h
- Activity [7]: inactive
